Like-named read-outs stand apart in the source and are kept apart here.

Data on 2 compounds can be found in patent publication US20180000798A1, “USE OF ACLIDINIUM” (Almirall, S.A., priority 2012, published 2018).

For data set [1], the system named is patients with moderate to severe COPD. Put plainly: Phase III randomized, double-blind, placebo controlled crossover trial; physical activity measured with multisensor armband. Type of data set: in vivo. The note with it: week 3; for Δ Comparison versus placebo, change from baseline in daily active energy expenditure / Δ Comparison versus placebo, change from baseline in duration of at least moderate activity: 400 micrograms aclidinium bromide per inhalation twice-daily, p < 0.05. The source says: In a Phase III randomized, double-blind, placebo controlled, 2 period crossover trial, patients with moderate to severe COPD received a dose of aclidinium equivalent to a metered nominal dose of 400 micrograms of aclidinium bromide per inhalation twice-daily (in the morning, 9 am, and in the evening, […]) and placebo for two periods of 3 weeks, with a washout period of 2 weeks between treatment periods.
Patients were randomised to receive either a dose of aclidinium equivalent to a metered nominal dose of 400 micrograms of aclidinium bromide per inhalation twice-daily in the first period followed by placebo in the second period, or to receive placebo in the first period followed by aclidinium bromide 400 micrograms twice-daily in the second period. Both aclidinium bromide and placebo were administered with a Genuair® multidose dry powder inhaler.
Physical activity (as minutes of at least moderate activity per day and as average active energy expenditure expressed in Kcal) was measured in the last week of the treatment with aclidinium and placebo using a multisensor armband (SenseWear™ Pro Armband; BodyMedia, Pittsburgh, Pa., USA), was worn on the upper right over the triceps muscle, according to the method described in Watz B et al, Eur Respir J, 2009; 33: 262-272. The multisensory armband incorporates a biaxial accelerometer that records steps per day and physiological sensors of energy expenditure.
A valid period of measurement was defined as 5 days of measurement with the patients wearing the accelerometer at least 22 hours per day.
The Intention-to-Treat (ITT) population included 109 patients.

A short description of data set [2]: Solubility of aclidinium bromide. The data set is classed as physicochemical. The source says: Aclidinium bromide is a white powder with a molecular formula of C26H30NO4S2Br and a molecular mass of 564.56.
The test system of the next data set is patients with COPD. As to conditions: previous trials, cited from earlier work.
The mark [3] stands for this setting: metered nominal dose 400 micrograms aclidinium bromide per inhalation twice-daily, adjusted mean, n = 85.

On to `O=C(O[C@H]1C[N+]2(CCCOc3ccccc3)CCC1CC2)C(O)(c1cccs1)c1cccs1` [Aclidinium, 3(R)-(2-hydroxy-2,2-dithien-2-ylacetoxy)-1-(3-phenoxypropyl)-1-azoniabicyclo[2.2.2] octane], for which, in data set [1], the “Δ Comparison versus placebo, change from baseline in daily active energy expenditure” value is given as 55 (p < 0.05) Kcal and the “Δ Comparison versus placebo, change from baseline in duration of at least moderate activity” value is recorded as 10 (p < 0.05) minutes. In addition, in data set [1] (listed as aclidinium bromide), the “Δ Comparison versus placebo, change from baseline in daily active energy expenditure” value came to 55 kcal and the “Δ Comparison versus placebo, change from baseline in duration of at least moderate activity” value was 10 min. For the same compound, in data set [1] (setting [3]), the “Change from baseline in daily active energy expenditure” value was found to be 21.9 kcal and the “Change from baseline in duration of at least moderate activity” value worked out at 4.2 min. In addition, the Solubility in ethanol entry in data set [2] (ethanol) is listed as “very slightly soluble”. Also, the Solubility in methanol entry in data set [2] (methanol) is “sparingly soluble”. For the same compound, the Solubility in water result in data set [2] (water) is reported as “very slightly soluble”.
For the compound `C[N+]1(C)[C@@H]2C[C@@H](OC(=O)C(O)(c3cccs3)c3cccs3)C[C@H]1[C@@H]1O[C@@H]12` [tiotropium], the “Improvement in physical activity versus placebo” value in the data set with patients with COPD (listed as tiotroplum) was “not observed”; in the data set with patients with COPD, “not statistically demonstrated improvements in physical activity”.
